From the NIST ThermoML archive (doi:10.1021/acs.jced.6b00428) come the findings set out here.

The data set is described as follows: refractive index (Na D-line) (dimensionless). Particulars: 101.33 kPa, Liquid, Standard Abbe refractometry.

± gives the expanded uncertainty stated by the source.

For `CC(=O)OC(C)C` [1-methylethyl ethanoate], under “293.15 K”, the refractive index – broadly, the speed of light in vacuum divided by its phase velocity in the sample – amounted to 1.3771 ± 0.0024.

As to `CCO` [ethanol], the refractive index (298.15 K) is given as 1.3616 ± 0.0024. With `O` [water], the refractive index (298.15 K) worked out at 1.3328 ± 0.0024.
